Test results: US20140323506A1, “COMBINATION” (GlaxoSmithKline Intellectual Property Development Limited, priority 2010, published 2014)

How the values were obtained:
Assay type in all cases: in vivo, CD-1 nude mice
[1] = Body weight of nude mice bearing A375P F11s xenografts during treatment
Experimental: (§1) Female CD-1 nude mice of 6-8 weeks in age were used in these studies; all mice were obtained from Charles River Laboratories (Wilmington, Del.). Animals were housed in pathogen free conditions and handled with aseptic technique.
(§2) Mice with similar sized tumors (100-300 mm^3) were identified. The length and width of the tumors were measured by handheld calipers and body weights of the mice were measured using a bench top weighing scale. Tumor volumes were calculated based on the following formula: tumor volume=(Length×Width^2)/2. Mice were block randomized into the required number of dosing groups (n=8 mice/group). The randomization process ensured that the average tumor volume for each dosing group was approximately equal at the beginning of the study and mice with differing tumor volumes were evenly distributed. Mice were placed in groups of eight accordingly and dosed with either vehicle or compound for 36 days either once or twice daily, as summarised in the table below. Mice were weighed and tumors measured twice weekly for the duration of the study using Studylog animal study management software (Studylog Systems, Inc., South San Francisco, Calif., USA).

[2] = system: A375P F11s tumor xenografts; experiment: A375P F11s tumor xenograft efficacy in nude mice
Experimental: as §1
The A375P F11s cell line, encoding a mutation for BRAF^V600E, was subcloned from the A375P human melanoma cell line (obtained from ATCC, Cat # CRL-1619).
The A375P F11s cell lines were grown in RPMI growth medium supplemented with 10% fetal bovine serum (FBS), 1% sodium pyruvate and 1% penicillin-streptomycin in a humidified 37° C. chamber with 5% CO2. Cells were expanded to obtain the large numbers of cells required for each injection; cells were grown in log phase, without reaching confluency and passaged regularly.
A375P F11s cells were harvested from culture flasks by exposure to 0.25% trypsin/EDTA for 5 min at 37° C. Detached cells were collected, centrifuged (1500 rpm, 5 min, 4° C.) and rinsed to remove the trypsin solution. Cells were re-suspended in PBS without magnesium or calcium and counted. Cells were spun as described previously to remove PBS and a single cell suspension was created in 50% Matrigel: 50% PBS (v:v) so that a 100 μL subcutaneous injection would deliver 1.75 million cells per mouse.
Compounds were administered in vehicles as described below.
as §2
Tumor volumes were calculated based on the following formula: tumor volume=(Length×Width^2)/2. Tumor growth curves were created from the mean±standard error of the mean, with n=8 animals per group. The percentage of tumor growth inhibition was calculated on the final day of dosing using the following formula: 1—(tumor volume in drug-treated population/tumor volume in vehicle-treated control population).

[3] = system: A375P F11s tumor xenografts; experiment: A375P F11s tumor xenograft efficacy in nude mice; remark: listed apart in the source
[4] = Group 3: Compound B 0.1 mg/kg PO QD, study day 0
[5] = Group 3: Compound B 0.1 mg/kg PO QD, study day 3
[6] = Group 3: Compound B 0.1 mg/kg PO QD, study day 7
[7] = Group 3: Compound B 0.1 mg/kg PO QD, study day 9
[8] = Group 3: Compound B 0.1 mg/kg PO QD, study day 15
[9] = Group 3: Compound B 0.1 mg/kg PO QD, study day 18
[10] = Group 3: Compound B 0.1 mg/kg PO QD, study day 22
[11] = Group 3: Compound B 0.1 mg/kg PO QD, study day 25
[12] = Group 3: Compound B 0.1 mg/kg PO QD, study day 28
[13] = Group 6: Compound B 0.3 mg/kg PO QD, study day 0
[14] = Group 6: Compound B 0.3 mg/kg PO QD, study day 3
[15] = Group 6: Compound B 0.3 mg/kg PO QD, study day 7
[16] = Group 6: Compound B 0.3 mg/kg PO QD, study day 9
[17] = Group 6: Compound B 0.3 mg/kg PO QD, study day 15
[18] = Group 6: Compound B 0.3 mg/kg PO QD, study day 18
[19] = Group 6: Compound B 0.3 mg/kg PO QD, study day 22
[20] = Group 6: Compound B 0.3 mg/kg PO QD, study day 25
[21] = Group 6: Compound B 0.3 mg/kg PO QD, study day 28
[22] = Group 6: Compound B 0.3 mg/kg PO QD, study day 31
[23] = Group 6: Compound B 0.3 mg/kg PO QD, study day 35
[24] = Group 6: Compound B 0.3 mg/kg PO QD, study day 37

Which Mean body weight ([1]; Group 2: Compound A 100 mg/kg PO BID, study day 0) does the source give for `Cc1ccc(Nc2nccc(N(C)c3ccc4c(C)n(C)nc4c3)n2)cc1S(N)(=O)=O` [Compound A, 5-[[4-[(2,3-dimethyl-2H-indazol-6-yl)methylamino]-2-pyrimidinyl]amino]-2-methylbenzenesulfonamide, reference compound] here?
The Mean body weight was 24.98 g.

And the Mean body weight ([1]; Group 2: Compound A 100 mg/kg PO BID, study day 3)?
Its Mean body weight is 25.13 g.

What about the Mean body weight ([1]; Group 2: Compound A 100 mg/kg PO BID, study day 7) of the same compound?
Its Mean body weight is 25.63 g.

What about the Mean body weight ([1]; Group 2: Compound A 100 mg/kg PO BID, study day 9) of the same compound?
The Mean body weight was 25.29 g.

What about the Mean body weight ([1]; Group 2: Compound A 100 mg/kg PO BID, study day 15) of the same compound?
Its Mean body weight is 24.83 g.

And the Mean body weight ([1]; Group 2: Compound A 100 mg/kg PO BID, study day 18)?
Its Mean body weight is 25.35 g.

What about the Mean body weight ([1]; Group 2: Compound A 100 mg/kg PO BID, study day 22) of the same compound?
Its Mean body weight is 24.71 g.

And the Mean body weight ([1]; Group 2: Compound A 100 mg/kg PO BID, study day 25)?
Its Mean body weight is 24.79 g.

And the Mean body weight ([1]; Group 2: Compound A 100 mg/kg PO BID, study day 28)?
The Mean body weight was 24.91 g.

What about the Mean body weight ([1]; Group 2: Compound A 100 mg/kg PO BID, study day 31) of the same compound?
The Mean body weight was 25.33 g.

What about the Mean body weight ([1]; Group 2: Compound A 100 mg/kg PO BID, study day 35) of the same compound?
Its Mean body weight is 24.95 g.

What about the Mean body weight ([1]; Group 2: Compound A 100 mg/kg PO BID, study day 37) of the same compound?
Its Mean body weight is 25.00 g.

Which results are given for `CC(=O)Nc1cccc(-n2c(=O)n(C3CC3)c(=O)c3c(Nc4ccc(I)cc4F)n(C)c(=O)c(C)c32)c1` [Compound B, N-{3-[3-cyclopropyl-5-(2-fluoro-4-iodo-phenylamino)-6,8-dimethy-2,4,7-trioxo-3,4,6,7-tetrahydro-2H-pyrido[4,3-d]pyrimidin-1-yl]phenyl}acetamide]?
smaller tumors compared to vehicle control ([2]; Compound B 0.3 mg/kg QD): 70.4%; tumor volume course under extended treatment ([2]; Compound B alone 0.3 mg/kg, treatment continued until day 37): tumor volume started to increase even under continued drug treatment; Mean tumor volume [2, 4]: 199.3 mm^3; Percent inhibition of tumor volume compared to vehicle treated mice [2, 4]: −15.70%; Mean tumor volume [2, 5]: 260.5 mm^3; Mean tumor volume [2, 6]: 300.8 mm^3; Percent inhibition of tumor volume compared to vehicle treated mice [2, 6]: 3.1%; Mean tumor volume [2, 7]: 335.1 mm^3; Percent inhibition of tumor volume compared to vehicle treated mice [2, 7]: 14.2%; Mean tumor volume [2, 8]: 459.3 mm^3; Percent inhibition of tumor volume compared to vehicle treated mice [2, 8]: 28.2%; Mean tumor volume [2, 9]: 616.2 mm^3; Percent inhibition of tumor volume compared to vehicle treated mice [2, 9]: 15.3%; Mean tumor volume [2, 10]: 916.9 mm^3; Mean tumor volume [2, 11]: 1,100.3 mm^3; Percent inhibition of tumor volume compared to vehicle treated mice [2, 11]: −1.0%; Mean tumor volume [2, 12]: 1,338.4 mm^3; Percent inhibition of tumor volume compared to vehicle treated mice [2, 12]: −6.8%; Mean tumor volume [2, 13]: 198.8 mm^3; Mean tumor volume [2, 14]: 205.9 mm^3; Percent inhibition of tumor volume compared to vehicle treated mice [2, 14]: 17.7%; Mean tumor volume [2, 15]: 141.2 mm^3; Percent inhibition of tumor volume compared to vehicle treated mice [2, 15]: 54.5%; Mean tumor volume [2, 16]: 124.4 mm^3; Mean tumor volume [2, 17]: 115.1 mm^3; Mean tumor volume [2, 18]: 141.4 mm^3; Percent inhibition of tumor volume compared to vehicle treated mice [2, 18]: 80.5%; Mean tumor volume [2, 19]: 217.3 mm^3; Mean tumor volume [2, 20]: 300.3 mm^3; Percent inhibition of tumor volume compared to vehicle treated mice [2, 20]: 72.4%; Mean tumor volume [2, 21]: 370.6 mm^3; Percent inhibition of tumor volume compared to vehicle treated mice [2, 21]: 70.4%; Mean tumor volume [2, 22]: 450.5 mm^3; Mean tumor volume [2, 23]: 529.1 mm^3; Mean tumor volume [2, 24]: 604.4 mm^3; Percent inhibition of tumor volume compared to vehicle treated mice [3, 5]: −4.1%; Percent inhibition of tumor volume compared to vehicle treated mice [3, 10]: 2.1%; Percent inhibition of tumor volume compared to vehicle treated mice [3, 13]: −15.41%; Percent inhibition of tumor volume compared to vehicle treated mice [3, 16]: 68.1%; Percent inhibition of tumor volume compared to vehicle treated mice [3, 17]: 82.0%; Percent inhibition of tumor volume compared to vehicle treated mice [3, 19]: 76.8%; Mean body weight [1, 4]: 26.30 g; Mean body weight [1, 5]: 26.00 g; Mean body weight [1, 6]: 26.24 g; Mean body weight [1, 7]: 26.23 g; Mean body weight [1, 8]: 26.09 g; Mean body weight [1, 9]: 27.09 g; Mean body weight [1, 10]: 26.73 g; Mean body weight [1, 11]: 26.80 g; Mean body weight [1, 12]: 26.93 g; Mean body weight [1, 13]: 24.59 g; Mean body weight [1, 14]: 24.10 g; Mean body weight [1, 15]: 23.89 g; Mean body weight [1, 16]: 23.93 g; Mean body weight [1, 17]: 23.94 g; Mean body weight [1, 18]: 24.41 g; Mean body weight [1, 19]: 23.83 g; Mean body weight [1, 20]: 23.95 g; Mean body weight [1, 21]: 24.18 g; Mean body weight [1, 22]: 24.49 g; Mean body weight [1, 23]: 24.54 g; Mean body weight [1, 24]: 24.64 g
